Reference: article PMC9201908, “Expansion of the Strigolactone Profluorescent Probes Repertory: The Right Probe for the Right Application” (Frontiers in Plant Science, 2022)
Several values for one entry are separate records, joined by “and”; a condition that tells them apart may be missing. Equal entries are not always repeated. Structures can show the parent of a compound that is named as a salt. Where two headings read alike, the source gives them in different places.

Tests used:
[1] = tested on: rms1-10 pea mutant plants; test: Pea shoot-branching assay by direct application on the bud, rms1-10; type: in vivo, Pisum sativum; details: for Length of bud at node 3 /branch: direct application, rms1-10, 10 days after treatment; for Bioactivity on shoot branching inhibition (bud development): result in words
Protocol: (§1) Pea (Pisum sativum) branching mutant plants used in this study were described previously (Rameau et al., [1997]). The SL biosynthesis rms1-10 (M3T-884) and SL response rms3-4 (M2T-30) mutants were obtained from the dwarf cv. Térèse. Plants were grown in a greenhouse under long days as described by Braun et al. ([2012]).
(§2) The compounds to be tested were applied directly to the axillary bud with a micropipette as 10 μL of a solution containing 0.1% of acetone with 2% of polyethylene glycol 1,450, 50% of ethanol, and 0.4% of DMSO. The control 0 is the treatment with 0.1% of DMSO without compound. A total of 24 plants were sown per treatment in trays (2 repetitions of 12 plants). The treatment was done 8 days after sowing, on the axillary bud at node 3. The branches at nodes 1–2 were removed to encourage the outgrowth of axillary buds at nodes above. Nodes were numbered acropetally from the first scale leaf as node 1 and cotyledonary node as node 0. Bud growth at node 3 was measured 10 days after treatment. Plants with damaged main shoot apex or showing a dead white treated bud were discarded from the analysis. The SL-deficient rms1-10 pea mutant was used for all experiments and WT Térèse as control. SL-perceived rms3-4 pea mutant was used to test that when bioactive, the analog acts via RMS3, and it was also used to check the putative toxicity of probes.

[2] = tested on: Arabidopsis SL-deficient mutant max3-11; test: Hydroponic assay on Arabidopsis, rosette branches; type: in vivo, Arabidopsis thaliana; details: max3-11, hydroponic, 0.5 and 3 μM
Protocol: The hydroponic assay was adapted from the study by Cornet et al. ([2021]). Seeds were surface-sterilized for 8 min in a solution of ethanol (95%) and hypochlorite solution (10%; Bayrol, Mundolsheim, France) and were rinsed two times with ethanol (100%). Each seed was sown on top of a cut 0.5 ml Eppendorf tube filled with agar medium containing 0.65% of agar and 10% of nutritive solution of 5 mM NO3. Tubes were soaked in water and stored in the dark at 4°C for 2 days. Twelve plants per pipette tip box (13 × 9 × 7 cm) were grown and supplied with nutrient solution as in the study by Boyer et al. ([2014]) at a concentration of 5 ml/L (750 ml of solution per box). Every week, the nutrient solution was renewed and every 10 days one time, a fresh batch of treatment was added to the solution. The first treatment occurred at day 27 after sowing when plants started to bolt. The number of rosette branches was counted at day 42.

[3] = tested on: rms1-10 pea mutant plants; test: Pea shoot-branching assay by vascular supply, rms1-10; type: in vivo, Pisum sativum; details: rms1-10, 3,000 nM
Protocol: as §1
The compounds to be tested were applied by vascular supply (Muñoz et al., [2021]). The control was the treatment with 0.1% of DMSO in water. A total of 12 plants were sown per treatment in trays and were treated with probes under node 3 bud generally 10 days after sowing. Compounds in DMSO solution were diluted with water to 3,000 nM for a treatment with 0.1% (v/v) DMSO. The branches at nodes 1 and 2 were removed to encourage the outgrowth of axillary buds at the nodes above. Nodes were numbered acropetally from the first scale leaf as node 1 and cotyledonary node as node 0. Bud growth at nodes 3 and 4 was measured with digital calipers 8–10 days after treatment. Plants with damaged main shoot apex or with a dead white treated-bud were discarded from the analysis. The SL-deficient rms1-10 pea mutant was used for all experiments.

Ppccd8 mutant plants [4] = test: Physcomitrium patens bioassay, number of filaments in the dark; type: in vivo; details: 1 μM; for Activity on filament number, one bioassay replication: Supplementary Figure 3
Protocol: Assays on Physcomitrium patens were performed on plants grown in 24-well plates, starting from very small pieces of moss tissues as described by Guillory and Bonhomme ([2021]). As for pea rms1, the Ppccd8 SL synthesis mutant was used for assays, since the effect of the compounds was better seen in this mutant vs. wild type (WT; Lopez-Obando et al., [2021]). For each treatment, 24 plants were grown in PpNO3 medium [minimal medium described by Ashton et al., [1979]], dispatched in three different plates. Plants were grown for 2 weeks under control conditions, then treated with fluorophores or probes (all compounds used at 1 μM), before being placed vertically in the dark for 10 days. A single picture of each well was taken under an Axio Zoom microscope (Zeiss) with a dedicated program. Filaments were counted using ImageJ software (http://imagej.nih.gov/ij/) as described by Guillory and Bonhomme ([2021]). Twenty-four plants were tested in each treatment.

RMS3 protein [5] = biological target: T1, RMS3 protein (Pisum sativum, UniProt A0A109QYD3); test: DSF binding assay on RMS3; details: 10 µM RMS3, probe 0-400 µM
T1 construct: GST; made in house
T1 sequence (A0A109QYD3 1-267): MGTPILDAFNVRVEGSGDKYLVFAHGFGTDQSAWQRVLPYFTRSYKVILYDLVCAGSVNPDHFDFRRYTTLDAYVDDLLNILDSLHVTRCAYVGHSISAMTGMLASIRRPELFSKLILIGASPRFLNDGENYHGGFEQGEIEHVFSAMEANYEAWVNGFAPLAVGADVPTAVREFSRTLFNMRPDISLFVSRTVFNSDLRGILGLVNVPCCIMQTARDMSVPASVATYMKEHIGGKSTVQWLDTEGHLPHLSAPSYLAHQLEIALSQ
Description: To search for a destabilization effect, which characterizes bioactive SL analogs with SL receptors, we performed DSF binding assay with our novel probes on RMS3 protein.
DSF assay with SL profluorescent probes. The melting temperature

RMS3 protein [6] = biological target: T1, RMS3 protein; test: Enzymatic assay with profluorescent probes, RMS3; type: biochemical; details: probe 10 μM, RMS3 400 nM, 25°C, result in words
rms3-4 pea mutant plants = test: Pea shoot-branching assay by direct application on the bud, rms3-4; type: in vivo, Pisum sativum; details: 1,000 nM, rms3-4, 10 days after treatment
Protocol: as §1, §2

[7] = tested on: rms1-10 pea mutant plants; details: cited from earlier work; for Length of bud at node 3 /branch: direct application, rms1-10, tested previously, ref De saint Germain et al 2016
ShD14 = tested on: ShD14; set-up: method as in Xu et al., 2018; details: ref Xu et al., 2018; cited from earlier work
Ppccd8 mutant plants [8] = details: WT and Ppccd8; ref Hoffmann et al., 2014; Lopez-Obando et al., 2021; cited from earlier work
pea = test: Bioactivity of D14 inhibitors in pea; details: in vivo

Molecule	Length of bud at node 3 /branch ([1]; 1,000 nM, mean per replicate)	Length of bud at node 3 /branch ([1]; 10 nM, mean per replicate)	Length of bud at node 3 /branch ([1]; 10,000 nM, mean per replicate) [mm]	Bioactivity on shoot branching inhibition (bud development) ([1]; rms1-10, direct application)	Length of bud at node 3 /branch ([1]; 100 nM, mean per replicate)	further results
7-Hydroxycoumarin [reference compound]	41.46 mm					
CC1=CC(Oc2ccc3nc4ccc(=O)cc-4oc3c2)OC1=O (racemic) [(±)-GC93, 7-[(4-Methyl-5-Oxo-2,5-Dihydrofuran-2-yl)Oxy]-3H-Phenoxazin-3-One]		17.73 mm	3.89	inhibitory effect with statistical significance only at 10 μM		Bioactivity on number of rosette branches [2]: not bioactive; Bioactivity by vascular supply compared to the coumarin derivatives series [3]: lower bioactivity; Activity on filament number (Ppccd8 mutant plants [4]): strongest activity
CC1=CC(Oc2ccc3ccc(=O)oc3c2)OC1=O (racemic) [(±)-GC116]	1.67 mm and 3.13 mm and 1.60 mm and 2.22 mm and 1.97 mm and 2.21 mm	2.47 mm and 2.26 mm and 5.20 mm and 4.34 mm and 3.85 mm	2.43	inhibition of bud development	2.66 mm and 2.29 mm and 2.46 mm and 1.96 mm and 1.72 mm	Length of bud at node 3 /branch ([1]; 0.1 nM): 11.47 mm; Length of bud at node 3 /branch ([1]; 1 nM): 6.38 mm; Inhibition of bud development among probes with one methyl group on the D-ring ([1]; rms1-10, direct application, 10 nM): strongest inhibition of bud development; Destabilization of RMS3 (DSF) (RMS3 protein [5]): able to destabilize RMS3; Bioactivity on number of rosette branches [2]: bioactive at 3 μM; Activity on filament number, one bioassay replication (Ppccd8 mutant plants [4]): no significant bioactivity
CC1=C(C)C(Oc2ccc3ccc(=O)oc3c2)OC1=O (racemic) [(±)-GC155]	1.98 mm and 1.45 mm and 1.92 mm and 1.96 mm and 2.38 mm and 2.32 mm	5.97 mm and 16.85 mm and 8.43 mm	2.06	among the most bioactive molecules	3.68 mm and 4.11 mm and 2.71 mm and 5.98 mm and 1.83 mm	Destabilization of RMS3 (DSF) (RMS3 protein [5]): able to destabilize RMS3; Cleavage kinetics by RMS3 (RMS3 protein [6]): two-phase kinetic
CC1=C(C)C(Oc2ccc3nc4ccc(=O)cc-4oc3c2)OC1=O (racemic) [(±)-GC247, 7-[(3,4-Dimethyl-5-Oxo-2,5-Dihydrofuran-2-yl)Oxy]-3H-Phenoxazin-3-One]		12.39 mm	6.54	inhibitory effect with statistical significance only at 10 μM		Cleavage kinetics by RMS3 (RMS3 protein [6]): two-phase kinetic
COc1cc2ccc(=O)oc2cc1OC1C=C(C)C(=O)O1 (racemic) [(±)-GC379]	3.38 mm and 3.19 mm and 3.65 mm and 3.04 mm	3.54 mm	2.17	bioactive for the three tested concentrations	2.81 mm and 5.02 mm and 3.98 mm and 14.32 mm	Destabilization of RMS3 (DSF) (RMS3 protein [5]): able to destabilize RMS3; Length of bud at node 3 /branch (rms3-4 pea mutant plants): 26.30
COc1cc2ccc(=O)oc2cc1OC1OC(=O)C(C)=C1C (racemic) [(±)-GC380]	2.33 mm and 3.47 mm and 2.08 mm	6.65 mm	2.15	bioactive for the three tested concentrations	8.99 mm and 11.66 mm and 5.90 mm	Length of bud at node 3 /branch (rms3-4 pea mutant plants): 23.62
Cc1cc(=O)oc2c(F)c(OC3C=CC(=O)O3)c(F)cc12 (racemic) [(±)-GC486]	23.14 mm	24.70 mm		no biological activity	22.10 mm	Length of bud at node 3 /branch ([7]; 1,000 nM): 9.26 mm; Length of bud at node 3 /branch ([7]; 5,000 nM): 17.41 mm; Cleavage kinetics by RMS3 (RMS3 protein [6]): Michaelian kinetics; Activity on filament number, one bioassay replication (Ppccd8 mutant plants [4]): slight opposite effect
CC1=C[C@H](O/C=C2/C(=O)O[C@@H]3c4ccccc4C[C@H]23)OC1=O (racemic) [(±)-GR24, reference compound]						Cleavage by ShD14 (ShD14): could cleave; Bioactivity on number of rosette branches [2]: bioactive at both concentrations; Effect on filament number (Ppccd8 mutant plants [8]): decrease in filament number; Activity on filament number (Ppccd8 mutant plants [4]): confirmed the previous activity
CCOC(=O)c1ccccc1-c1c2ccc(=O)cc-2oc2cc(OC3C=CC(=O)O3)ccc12 (racemic) [(±)-dYLG, reference compound]						Biological activity on branching inhibition ([7]; ref Yao et al., 2021): no biological activity
CC1=CC(OC=C2C(=O)OC3c4ccccc4CC23)OC1=O (single isomer, unassigned; (+)) [(+)-GR24]						Effect on filament number (Ppccd8 mutant plants [8]): decrease in filament number
CC(=O)Oc1ccc2ccc(=O)oc2c1 [CoumarinAc, 7-Acetoxycoumarin]	25.33 mm	21.81 mm		no effect	22.67 mm	Cleavage kinetics by RMS3 (RMS3 protein [6]): slower velocity than DiFMUAc
Cc1cc(=O)oc2c(F)c(O)c(F)cc12 [DiFMU, 6,8-difluoro-7-hydroxy-4-methyl-2H-chromen-2-one, reference compound]	14.76 mm					
O=C(N1CCc2ccccc21)n1ccnn1 [KK094]						Bioactivity in pea (pea): no bioactivity
O=c1ccc2nc3ccc(O)cc3oc-2c1 [Resorufin, reference compound]	14.90 mm	12.53 mm			16.50 mm	
Cc1c(Cl)cccc1Nc1ccccc1C(=O)O [TFA, tolfenamic acid]						Bioactivity in pea (pea): no bioactivity
